Reference: ChEMBL document CHEMBL1155864, “N-Acyl-3-amino-5H-furanone derivatives as new inhibitors of LuxR-dependent quorum sensing: Synthesis, biological evaluation and binding mode study” (Bioorg Med Chem Lett, 2008)
Activity calls are given as the source filed them. The rule behind the calls is not given here.

What follows are compounds tested against T1, Transcriptional activator protein LuxR (Aliivibrio fischeri) (UniProt P12746) (assay: Inhibition of LuxR-dependent Vibrio fischeri quorum sensing assessed as reduction in 3-oxo-hexanoyihomoserine-induced bioluminescence upto 100 uM).
T1 sequence (whole entry): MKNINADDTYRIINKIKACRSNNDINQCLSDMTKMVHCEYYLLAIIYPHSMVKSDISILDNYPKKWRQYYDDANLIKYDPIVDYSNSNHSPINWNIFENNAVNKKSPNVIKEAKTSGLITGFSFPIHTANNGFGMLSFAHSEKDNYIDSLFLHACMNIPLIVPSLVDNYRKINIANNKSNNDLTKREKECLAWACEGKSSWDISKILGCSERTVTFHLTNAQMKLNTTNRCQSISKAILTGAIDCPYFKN
With `O=C(CCCc1ccccc1)NC1=CCOC1=O` the Activity was “inactive”.

Each compound was assayed against T2, Transcriptional activator protein LuxR (Aliivibrio fischeri, UniProt P12746) (assay: Inhibition of LuxR-dependent Vibrio fischeri quorum sensing assessed as reduction in 3-oxo-hexanoyihomoserine-induced bioluminescence).
T2 sequence (P12746 whole entry): T1 sequence (whole entry)
With `CCCC(=O)CC(=O)NC1=CCOC1=O` the IC50 was 55 µM. With `CCCCCC(=O)NC1=C(Br)COC1=O` the IC50 was 6.5 µM. Work on `CCCCCC(=O)NC1=C(Cl)COC1=O` yielded an IC50 of 6.9 µM. `O=C(CCCc1ccccc1)NC1=C(Br)COC1=O` showed an IC50 of 84 µM. In the case of `CCCCCC(=O)NC1=CCOC1=O`, the IC50 is reported as 85 µM.
